Counter-ions that a name gives are not always drawn.

In US9975907B2, “Pyrimidinones as PI3K inhibitors” (Incyte Corporation, priority 2009, dated 2018) one finds IC50 data, which are given here for 17 compounds.

For test [1], the system named is Pfeiffer cell line (diffuse large B cell lymphoma). Nature of the test: Pfeiffer Cell Proliferation Assay. It counts as cell-based. The settings on record: 3-4 days, [3H]-thymidine incorporation. Here is the method:
Pfeiffer cell line (diffuse large B cell lymphoma) was purchased from ATCC (Manassas, Va.) and maintained in the culture medium recommended (RPMI and 10% FBS). To measure the anti-proliferation activity of the PI3Kδ submittals, the Pfeiffer cells were plated with the culture medium (2×10^3 cells/well/per 200 μl) into 96-well ultra-low binding plates (Corning, Corning, N.Y.), in the presence or absence of a concentration range of test compounds. After 3-4 days, [^3H]-thymidine (1 μCi/well) (PerkinElmer, Boston, Mass.) in PBS was then added to the cell culture for an additional 12 hrs before the incorporated radioactivity was separated by filtration with water through GF/B filters (Packard Bioscience, Meriden, Conn.) and measured by liquid scintillation counting with a TopCount (Packard Bioscience). See Table 3 for data related to compounds of the invention.

Test [2] has as its target T1, PI3Kδ (p110δ/p85α) (Homo sapiens (Human), UniProt O00329). As to the kind of experiment: PI3Kδ Scintillation Proximity Assay (Assay A3). The settings on record: column b, Assay A3 (SPA), 20 μM ATP. The class given is biochemical. The method in brief:
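Human p110δ/p85α (4 nM) with 20 μM diC8-PIP2 and 20 μM ATP plus [γ-33P]ATP, 210 min at room temperature in 20 mM MOPS pH 6.7, 10 mM MgCl2, 5 mM DTT, 0.03% CHAPS, 0.5% DMSO. Product captured on WGA SPA beads in EDTA quench; IC50 from percent-control versus log concentration fit.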
(SPA uses beads or plates that emit light when radiolabelled molecules are held near them.)

In test [3] the target is PI3Kγ (Homo sapiens (Human), UniProt P48736). Nature of the test: PI3K Enzyme Assay A2 ([γ-33P]ATP filter plate), PI3Kγ. The class given is biochemical. The settings on record: Assay A2, 1000 μM ATP. How it is done: Materials: Lipid kinase substrate, phosphoinositol-4,5-bisphosphate (PIP2), was purchased from Echelon Biosciences (Salt Lake City, Utah). PI3K isoforms α, β, δ and γ were purchased from Millipore (Bedford, Mass.). ATP, MgCh, DTT, EDTA, MOPS and CHAPS were purchased from Sigma-Aldrich (St. Louis, Mo.).
The kinase reaction was conducted in clear-bottom 96-well plate from Thermo Fisher Scientific in a final volume of 24 μL. Inhibitors were first diluted serially in DMSO and added to the plate wells before the addition of other reaction components. The final concentration of DMSO in the assay was 0.5%. The PI3K assays were carried out at room temperature in 20 mM MOPS, pH 6.7, 10 mM MgCl2, 5 mM DTT and CHAPS 0.03%. The reaction mixture was prepared containing 50 μM PIP2, kinase and varying concentration of inhibitors. Reactions were initiated by the addition of ATP containing 2.2 μCi [γ-^33P]ATP to a final concentration of 1000 μM. The final concentration of PI3K isoforms α, β, δ and γ in the assay were 1.3, 9.4, 2.9 and 10.8 nM respectively. Reactions were incubated for 180 min and terminated by the addition of 100 μL of 1 M potassium phosphate pH 8.0, 30 mM EDTA quench buffer. A 100 μL aliquot of the reaction solution was then transferred to 96-well Millipore MultiScreen IP 0.45 μm PVDF filter plate (The filter plate was prewetted with 200 μL 100% ethanol, distilled water, and 1 M potassium phosphate pH 8.0, respectively). The filter plate was aspirated on a Millipore Manifold under vacuum and washed with 18×200 μL wash buffer containing 1 M potassium phosphate pH 8.0 and 1 mM ATP. After drying by aspiration and blotting, the plate was air dried in an incubator at 37° C. overnight. Packard TopCount adapter (Millipore) was then attached to the plate followed with addition of 120 μL Microscint 20 scintillation cocktail (Perkin Elmer) in each well. After the plate sealing, the radioactivity of the product was determined by scintillation counting on Topcount (Perkin-Elmer). IC50 determination was performed by fitting the curve of percent control activity versus the log of the inhibitor concentration using the GraphPad Prism 3.0 software. […] See Table 1 for data related to compounds of the invention.

Test [4] concerns the target T1, PI3Kδ (p110δ/p85α). As to the kind of experiment: AlphaScreen Assay for PI3Kδ (Assay A1). It counts as biochemical. The settings on record: column a, 20 μM ATP. From the text: PI3-Kinase luminescent assay kit including lipid kinase substrate, D-myo-phosphatidylinositol 4,5-bisphosphate (PtdIns(4,5)P2)D (+)-sn-1,2-di-O-octanoylglyceryl, 3-O-phospho linked (PIP2), biotinylated I(1,3,4,5)P4, PI(3,4,5)P3 Detector Protein, was purchased from Echelon Biosciences (Salt Lake City, Utah). AlphaScreen™ GST Detection Kit including donor and acceptor beads was purchased from PerkinElmer Life Sciences (Waltham, Mass.). PI3Kδ (p110δ/p85α) was purchased from Millipore (Bedford, Mass.). ATP, MgCb, DTT, EDTA, HEPES and CHAPS were purchased from Sigma-Aldrich (St. Louis, Mo.).
AlphaScreen™ Assay for PI3Kδ
The kinase reaction was conducted in 384-well REMP plate from Thermo Fisher Scientific in a final volume of 40 μL. Inhibitors were first diluted serially in DMSO and added to the plate wells before the addition of other reaction components. The final concentration of DMSO in the assay was 2%. The PI3K assays were carried out at room temperature in 50 mM HEPES, pH 7.4, 5 mM MgCl2, 50 mM NaCl, 5 mM DTT and CHAPS 0.04%. Reactions were initiated by the addition of ATP, the final reaction mixture consisted of 20 μM PIP2, 20 μM ATP, 1.2 nM PI3Kδ were incubated for 20 min. 10 μL of reaction mixture was then transferred to 5 μL 50 nM biotinylated I(1,3,4,5)P4 in quench buffer: 50 mM HEPES pH 7.4, 150 mM NaCl, 10 mM EDTA, 5 mM DTT, 0.1% Tween-20, followed with the addition of 10 μL AlphaScreen™ donor and acceptor beads suspended in quench buffer containing 25 nM PI(3,4,5)P3 detector protein. The final concentration of both donor and acceptor beads is […]. After plate sealing, the plate was incubated in a dark location at room temperature for 2 hours. The activity of the product was determined on Fusion-alpha microplate reader (Perkin-Elmer). IC50 determination was performed by fitting the curve of percent control activity versus the log of the inhibitor concentration using the GraphPad Prism 3.0 software.
A general note: Alpha assays give light when donor and acceptor beads are brought close together.

T1 sequence (O00329 whole entry, species assumed): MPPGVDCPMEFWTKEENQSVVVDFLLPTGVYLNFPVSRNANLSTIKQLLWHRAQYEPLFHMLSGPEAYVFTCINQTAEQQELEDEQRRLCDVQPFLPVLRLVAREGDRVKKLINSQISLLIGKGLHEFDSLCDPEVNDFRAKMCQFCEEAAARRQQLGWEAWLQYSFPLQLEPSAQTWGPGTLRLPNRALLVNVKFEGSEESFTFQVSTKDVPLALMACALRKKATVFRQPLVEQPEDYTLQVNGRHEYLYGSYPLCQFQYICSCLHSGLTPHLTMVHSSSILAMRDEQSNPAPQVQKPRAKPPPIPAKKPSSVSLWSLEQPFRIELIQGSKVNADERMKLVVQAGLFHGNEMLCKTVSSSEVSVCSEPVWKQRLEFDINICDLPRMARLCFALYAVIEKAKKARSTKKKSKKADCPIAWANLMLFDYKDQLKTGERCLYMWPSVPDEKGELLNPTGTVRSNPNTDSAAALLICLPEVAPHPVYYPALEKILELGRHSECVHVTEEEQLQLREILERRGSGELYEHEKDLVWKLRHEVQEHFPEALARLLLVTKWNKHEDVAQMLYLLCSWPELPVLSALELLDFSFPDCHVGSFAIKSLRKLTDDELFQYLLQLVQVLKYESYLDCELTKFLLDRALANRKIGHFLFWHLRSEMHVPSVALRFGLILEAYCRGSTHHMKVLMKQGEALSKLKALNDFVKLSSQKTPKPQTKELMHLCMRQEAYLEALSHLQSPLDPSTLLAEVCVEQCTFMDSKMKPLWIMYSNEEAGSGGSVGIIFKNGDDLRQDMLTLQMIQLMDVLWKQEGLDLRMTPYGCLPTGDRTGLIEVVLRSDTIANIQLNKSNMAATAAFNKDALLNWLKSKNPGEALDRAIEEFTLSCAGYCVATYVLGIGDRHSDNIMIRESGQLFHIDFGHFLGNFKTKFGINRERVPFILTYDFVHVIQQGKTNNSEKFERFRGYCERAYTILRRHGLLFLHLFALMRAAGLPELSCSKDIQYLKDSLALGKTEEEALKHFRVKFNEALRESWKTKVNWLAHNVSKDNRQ
T1 sequence (P27986 whole entry partner, species assumed): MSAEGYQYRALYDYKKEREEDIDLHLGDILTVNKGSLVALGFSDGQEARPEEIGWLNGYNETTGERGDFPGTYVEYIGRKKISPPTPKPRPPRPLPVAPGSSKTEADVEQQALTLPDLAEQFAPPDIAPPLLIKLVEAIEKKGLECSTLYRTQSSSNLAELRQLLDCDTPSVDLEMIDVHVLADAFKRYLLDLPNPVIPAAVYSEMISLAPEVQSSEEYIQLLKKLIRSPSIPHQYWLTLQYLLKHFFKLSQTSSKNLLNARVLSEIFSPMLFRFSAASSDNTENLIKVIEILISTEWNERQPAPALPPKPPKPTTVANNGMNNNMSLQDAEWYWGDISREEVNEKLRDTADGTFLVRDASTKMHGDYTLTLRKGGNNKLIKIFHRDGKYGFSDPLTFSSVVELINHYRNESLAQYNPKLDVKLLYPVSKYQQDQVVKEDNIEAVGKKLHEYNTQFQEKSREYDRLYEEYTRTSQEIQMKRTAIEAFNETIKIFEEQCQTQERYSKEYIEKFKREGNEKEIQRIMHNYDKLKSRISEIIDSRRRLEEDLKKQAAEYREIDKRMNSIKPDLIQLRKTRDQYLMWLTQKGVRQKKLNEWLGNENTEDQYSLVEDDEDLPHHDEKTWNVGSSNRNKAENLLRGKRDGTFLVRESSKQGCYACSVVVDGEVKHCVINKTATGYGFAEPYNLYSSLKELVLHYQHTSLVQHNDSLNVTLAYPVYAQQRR
Chain of PI3Kγ (P48736 whole entry, species assumed, canonical isoform): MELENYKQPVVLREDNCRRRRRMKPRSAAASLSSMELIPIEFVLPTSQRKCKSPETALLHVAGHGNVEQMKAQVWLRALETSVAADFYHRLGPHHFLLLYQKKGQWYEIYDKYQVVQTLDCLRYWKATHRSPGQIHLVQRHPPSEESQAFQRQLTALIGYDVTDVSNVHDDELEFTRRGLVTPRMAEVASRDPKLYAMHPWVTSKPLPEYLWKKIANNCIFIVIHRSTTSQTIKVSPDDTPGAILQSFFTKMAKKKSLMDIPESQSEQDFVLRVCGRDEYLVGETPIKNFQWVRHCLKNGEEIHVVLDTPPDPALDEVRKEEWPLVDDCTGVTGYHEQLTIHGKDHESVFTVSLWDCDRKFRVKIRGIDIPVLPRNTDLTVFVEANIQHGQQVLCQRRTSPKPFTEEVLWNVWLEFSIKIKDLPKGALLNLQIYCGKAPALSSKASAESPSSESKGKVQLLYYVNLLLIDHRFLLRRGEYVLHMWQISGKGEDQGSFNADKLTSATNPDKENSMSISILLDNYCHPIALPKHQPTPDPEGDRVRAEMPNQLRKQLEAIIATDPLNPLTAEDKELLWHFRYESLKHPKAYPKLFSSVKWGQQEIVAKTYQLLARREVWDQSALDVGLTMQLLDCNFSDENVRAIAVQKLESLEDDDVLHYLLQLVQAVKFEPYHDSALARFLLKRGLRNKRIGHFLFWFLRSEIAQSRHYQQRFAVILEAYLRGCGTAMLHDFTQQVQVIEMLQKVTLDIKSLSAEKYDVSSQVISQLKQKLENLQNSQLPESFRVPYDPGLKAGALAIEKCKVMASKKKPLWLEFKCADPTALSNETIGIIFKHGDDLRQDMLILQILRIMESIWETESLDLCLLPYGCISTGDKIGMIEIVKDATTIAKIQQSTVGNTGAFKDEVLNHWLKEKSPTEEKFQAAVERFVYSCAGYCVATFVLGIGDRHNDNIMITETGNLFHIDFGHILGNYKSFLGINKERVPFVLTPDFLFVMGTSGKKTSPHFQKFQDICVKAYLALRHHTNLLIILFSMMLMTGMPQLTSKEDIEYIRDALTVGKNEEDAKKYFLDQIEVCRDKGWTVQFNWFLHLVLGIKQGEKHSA

In the case of `Cc1csc2nc([C@H](C)Nc3nc(N)nc4[nH]cnc34)c(-c3ccccc3Cl)c(=O)n12` (single isomer, unassigned) [39 Second peak], in test [1], the half-maximal inhibitory concentration (IC50) (in general, the midpoint of a concentration-inhibition curve) is less than 50 nM.

In the case of `Cc1csc2nc([C@H](C)Nc3ncnc4[nH]cnc34)c(-c3ccccc3Cl)c(=O)n12` (single isomer, unassigned) [43 Second peak], the IC50 in test [1] is less than 50 nM.

Take `Cc1csc2nc(C(C)Nc3nc(N)nc4[nH]cnc34)c(-c3cc(F)cc(F)c3)c(=O)n12` (single isomer, unassigned) [Example 23, 7-{1-[(2-amino-9H-purin-6-yl)amino]ethyl}-6-(3,5-difluorophenyl)-3-methyl-5H-[1,3]thiazolo[3,2-a]pyrimidin-5-one]: the IC50 in test [2] was less than 50 nM; in test [3], greater than 500 nM; in test [1] (Homo sapiens, Pfeiffer) it was less than 50 nM.

With `Cc1cccc2nc(C(C)Nc3ncnc4[nH]cnc34)c(-c3cccc(F)c3)c(=O)n12` (single isomer, unassigned) [Example 72, 3-(3-Fluorophenyl)-6-methyl-2-[1-(9H-purin-6-ylamino)ethyl]-4H-pyrido[1,2-a]pyrimidin-4-one trifluoroacetic acid salt], the 50% inhibitory concentration (IC50) in test [2] was greater than 500 nM; in test [1] (trifluoroacetic acid salt), 500 to 1000 nM.

As for `Cc1cccc2nc(C(C)Nc3nc(N)nc4[nH]cnc34)c(-c3cccc(F)c3)c(=O)n12` (single isomer, unassigned) [Example 74, 2-{1-[(2-Amino-9H-purin-6-yl)amino]ethyl}-3-(3-fluorophenyl)-6-methyl-4H-pyrido[1,2-a]pyrimidin-4-one trifluoroacetic acid salt], the 50% inhibitory concentration (IC50) in test [2] and in test [1] (trifluoroacetic acid salt) was less than 50 nM throughout.

On to `Cc1cccc2nc(C(C)Nc3nc(N)nc4[nH]cnc34)c(-c3cccc(F)c3)c(=O)n12` (single isomer, unassigned) [Example 75, 2-{1-[(2-Amino-9H-purin-6-yl)amino]ethyl}-3-(3-fluorophenyl)-6-methyl-4H-pyrido[1,2-a]pyrimidin-4-one trifluoroacetic acid salt], for which the IC50 in test [2] was greater than 500 nM; in test [1] (trifluoroacetic acid salt) it was 500 to 1000 nM.

As for `Cc1cccc2nc(C(C)n3cnc4c(N)ncnc43)c(-c3ccccc3)c(=O)n12` (stereo not drawn) [Example 1, 2-[1-(6-amino-9H-purin-9-yl)ethyl]-6-methyl-3-phenyl-4H-pyrido[1,2-a]pyrimidin-4-one], the IC50 in test [2] and in test [4] was 100 to 500 nM each time.

Take `CCC(Nc1ncnc2[nH]cnc12)c1nc2cccc(C)n2c(=O)c1-c1ccccc1` (stereo not drawn) [Example 2, 6-methyl-3-phenyl-2-[1-(9H-purin-6-ylamino)propyl]-4H-pyrido[1,2-a]pyrimidin-4-one]: the 50% inhibitory concentration (IC50) in test [2] was less than 50 nM; in test [4], 50 to 100 nM.

For the compound `CCC(Nc1ncnc2[nH]cnc12)c1nc2cccc(C)n2c(=O)c1-c1cncc(F)c1` (stereo not drawn) [Example 3, 3-(5-fluoropyridin-3-yl)-6-methyl-2-[1-(9H-purin-6-ylamino)propyl]-4H-pyrido[1,2-a]pyrimidin-4-one], the half-maximal inhibitory concentration (IC50) in test [2] and in test [4] was 100 to 500 nM throughout.

In the case of `CCC(Nc1ncnc2[nH]cnc12)c1nc2cccc(C)n2c(=O)c1-c1cccc(F)c1` (stereo not drawn) [Example 4, 3-(3-fluorophenyl)-6-methyl-2-[1-(9H-purin-6-ylamino)propyl]-4H-pyrido[1,2-a]pyrimidin-4-one], the results for the IC50 in test [2] and in test [4] were 50 to 100 nM and 100 to 500 nM, respectively.

For `CCC(Nc1ncnc2[nH]cnc12)c1nc2cccc(C)n2c(=O)c1-c1cc(F)cc(F)c1` (stereo not drawn) [Example 5, 3-(3,5-difluorophenyl)-6-methyl-2-[1-(9H-purin-6-ylamino)propyl]-4H-pyrido[1,2-a]pyrimidin-4-one], the half-inhibitory concentration (IC50) in test [2] is 50 to 100 nM; in test [4], 100 to 500 nM.

For the compound `CCC(Nc1ncnc2[nH]cnc12)c1nc2cccc(C)n2c(=O)c1-c1cccnc1F` (stereo not drawn) [Example 6, 3-(2-fluoropyridin-3-yl)-6-methyl-2-[1-(9H-purin-6-ylamino)propyl]-4H-pyrido[1,2-a]pyrimidin-4-one], the concentration for half-maximal inhibition (IC50) in test [2] and in test [4] was 100 to 500 nM each time.

With `CCC(Nc1ncnc2[nH]cnc12)c1nc2cccc(C)n2c(=O)c1-c1cn[nH]c1` (stereo not drawn) [Example 7, 6-methyl-2-[1-(9H-purin-6-ylamino)propyl]-3-(1H-pyrazol-4-yl)-4H-pyrido[1,2-a]pyrimidin-4-one], the IC50 in test [2] lay in the range of 50 to 100 nM; in test [4], 100 to 500 nM.

As for `Cc1csc2nc(C(C)Nc3ncnc4[nH]cnc34)c(-c3ccccc3)c(=O)n12` (stereo not drawn) [Example 8, 3-methyl-6-phenyl-7-[1-(9H-purin-6-ylamino)ethyl]-5H-[1,3]thiazolo[3,2-a]pyrimidin-5-one], the IC50 in test [2] was less than 50 nM; in test [4] it was 50 to 100 nM.

Regarding `Cc1csc2nc(C(C)Nc3ncnc4[nH]cnc34)c(-c3ccccn3)c(=O)n12` (stereo not drawn) [Example 14, 3-methyl-7-[1-(9H-purin-6-ylamino)ethyl]-6-pyridin-2-yl-5H-[1,3]thiazolo[3,2-a]pyrimidin-5-one], the concentration for half-maximal inhibition (IC50) in test [2] and in test [4] was 50 to 100 nM each time.

Regarding `Cc1cccc2nc(C(C)Nc3ncnc4[nH]cnc34)c(-c3cccc(F)c3)c(=O)n12` (stereo not drawn) [Example 70, 3-(3-Fluorophenyl)-6-methyl-2-[1-(9H-purin-6-ylamino)ethyl]-4H-pyrido[1,2-a]pyrimidin-4-one trifluoroacetic acid salt], the IC50 in test [2] was 50 to 100 nM; in test [1] (Homo sapiens, Pfeiffer) it was less than 50 nM.

On to `Cc1cccc2nc(C(C)Nc3nc(N)nc4[nH]cnc34)c(-c3cccc(F)c3)c(=O)n12` (stereo not drawn) [Example 73, 2-{1-[(2-Amino-9H-purin-6-yl)amino]ethyl}-3-(3-fluorophenyl)-6-methyl-4H-pyrido[1,2-a]pyrimidin-4-one trifluoroacetic acid salt], for which the IC50 was less than 50 nM in test [2] and less than 50 nM in test [1] (Homo sapiens, Pfeiffer).
